Assays:
[1] = biological target: T1, Tyrosine-protein phosphatase non-receptor type 1 (Homo sapiens, UniProt P18031); experiment: Inhibition of PTP1B (unknown origin) using pNPP as substrate after 30 mins
T1 sequence (P18031 whole entry): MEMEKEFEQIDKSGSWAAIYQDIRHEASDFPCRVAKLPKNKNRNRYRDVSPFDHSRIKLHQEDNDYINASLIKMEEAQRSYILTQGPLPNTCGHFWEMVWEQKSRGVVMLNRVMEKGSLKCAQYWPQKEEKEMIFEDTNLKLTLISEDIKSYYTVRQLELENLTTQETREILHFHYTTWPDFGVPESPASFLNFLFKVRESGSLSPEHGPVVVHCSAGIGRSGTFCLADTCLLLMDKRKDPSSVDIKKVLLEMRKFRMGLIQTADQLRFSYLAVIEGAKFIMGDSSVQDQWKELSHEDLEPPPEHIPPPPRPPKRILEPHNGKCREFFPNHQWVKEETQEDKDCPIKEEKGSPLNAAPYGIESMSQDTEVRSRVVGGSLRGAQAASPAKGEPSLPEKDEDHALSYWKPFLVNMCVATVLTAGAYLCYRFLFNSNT

[2] = biological target: T2, Tyrosine-protein phosphatase non-receptor type 2 (Homo sapiens, UniProt P17706); experiment: Inhibition of TCPTP (unknown origin) using pNPP as substrate after 30 mins
T2 sequence (P17706 whole entry): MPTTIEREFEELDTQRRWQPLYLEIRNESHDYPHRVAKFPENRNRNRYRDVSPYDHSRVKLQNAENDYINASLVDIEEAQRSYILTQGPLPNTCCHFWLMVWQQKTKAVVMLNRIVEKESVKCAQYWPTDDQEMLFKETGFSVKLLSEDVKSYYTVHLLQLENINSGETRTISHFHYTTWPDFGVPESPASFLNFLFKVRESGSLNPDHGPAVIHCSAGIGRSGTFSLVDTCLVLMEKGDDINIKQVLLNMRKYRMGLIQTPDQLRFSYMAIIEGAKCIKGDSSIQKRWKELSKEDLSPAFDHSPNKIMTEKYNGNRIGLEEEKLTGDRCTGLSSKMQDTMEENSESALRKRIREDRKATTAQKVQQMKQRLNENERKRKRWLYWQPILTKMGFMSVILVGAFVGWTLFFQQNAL

[3] = biological target: T3, Tyrosine-protein phosphatase non-receptor type 11 (Homo sapiens, UniProt Q06124); experiment: Inhibition of SHP2 (unknown origin) using pNPP as substrate after 30 mins
T3 sequence (Q06124 whole entry): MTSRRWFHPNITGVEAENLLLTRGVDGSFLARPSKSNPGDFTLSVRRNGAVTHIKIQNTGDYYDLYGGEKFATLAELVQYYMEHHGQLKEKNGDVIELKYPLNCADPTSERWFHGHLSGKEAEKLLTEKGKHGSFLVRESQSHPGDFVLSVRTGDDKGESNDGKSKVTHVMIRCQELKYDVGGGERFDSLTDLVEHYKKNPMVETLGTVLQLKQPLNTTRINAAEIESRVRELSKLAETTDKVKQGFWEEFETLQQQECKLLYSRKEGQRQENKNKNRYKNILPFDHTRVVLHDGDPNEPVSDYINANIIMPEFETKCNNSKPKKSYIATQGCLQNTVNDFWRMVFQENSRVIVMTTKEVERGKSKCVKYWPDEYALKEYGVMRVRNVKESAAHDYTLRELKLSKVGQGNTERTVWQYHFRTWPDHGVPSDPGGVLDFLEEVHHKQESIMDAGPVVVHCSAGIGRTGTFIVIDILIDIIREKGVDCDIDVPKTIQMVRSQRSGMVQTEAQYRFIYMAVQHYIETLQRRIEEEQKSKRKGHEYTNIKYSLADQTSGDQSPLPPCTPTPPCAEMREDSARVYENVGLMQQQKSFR

[4] = Apparent permeability of compound at 10 uM at pH 7.4 after 12 hrs by PAMPA; assay type: ADME
[5] = biological target: T4, Tyrosine-protein phosphatase non-receptor type 1 (Homo sapiens) (UniProt P18031); experiment: Inhibition of PTP1B in human HepG2 cells assessed as increase in insulin stimulated glucose uptake at 5 uM preincubated for 24 hrs followed by insulin addition and measured after 10 mins by 2-NBDG dye-based FACS analysis relative to control; assay type: cell-based; parameters: scale not given: the % may be the effect or the level left
T4 sequence (whole entry): T1 sequence (P18031 whole entry)

[6] = biological target: T4, Tyrosine-protein phosphatase non-receptor type 1 (Homo sapiens); experiment: Inhibition of PTP1B in human HepG2 cells assessed as increase in insulin stimulated glucose uptake at 10 uM preincubated for 24 hrs followed by insulin addition and measured after 10 mins by 2-NBDG dye-based FACS analysis relative to control; assay type: cell-based; parameters: scale not given: the % may be the effect or the level left
[7] = biological target: T4, Tyrosine-protein phosphatase non-receptor type 1 (Homo sapiens); experiment: Inhibition of PTP1B in human HepG2 cells assessed as increase in insulin stimulated glucose uptake at 20 uM preincubated for 24 hrs followed by insulin addition and measured after 10 mins by 2-NBDG dye-based FACS analysis relative to control; assay type: cell-based; parameters: scale not given: the % may be the effect or the level left

Structure (SMILES) | IC50 [1] [µM] | other results
CCOS(=O)(=O)/C=C/c1ccc(O[C@@H]2CN(C(=O)c3ccc(Oc4ccccc4)cc3)C[C@H]2Oc2ccc(/C=C/S(=O)(=O)OCC)cc2)cc1 | 2.95 | 
CCOS(=O)(=O)/C=C/c1ccc(O[C@@H]2CN(C(=O)C(=O)Nc3ccccc3)C[C@H]2Oc2ccc(/C=C/S(=O)(=O)OCC)cc2)cc1 | 2.52 | IC50 [2]: 7.84 µM; IC50 [3]: 5.65 µM; Papp at 12 h, 10 µM [4]: 1.27 ×10⁻⁶ cm/s
CCOS(=O)(=O)/C=C/c1ccc(O[C@@H]2CN(C(=O)Nc3ccc(Oc4ccccc4)cc3)C[C@H]2Oc2ccc(/C=C/S(=O)(=O)OCC)cc2)cc1 | 1.93 | 
CCOS(=O)(=O)/C=C/c1ccc(O[C@@H]2CN(Cc3ccccc3)C[C@H]2Oc2ccc(/C=C/S(=O)(=O)OCC)cc2)cc1 | 9.34 | 
CCOS(=O)(=O)/C=C/c1ccc(O[C@@H]2CN(C(=O)C(=O)Nc3ccc(Oc4ccc(C(C)C)cc4)cc3)C[C@H]2Oc2ccc(/C=C/S(=O)(=O)OCC)cc2)cc1 | 0.42 | 
CCOS(=O)(=O)/C=C/c1ccc(O[C@@H]2CNC[C@H]2Oc2ccc(/C=C/S(=O)(=O)OCC)cc2)cc1 | 16.8 | IC50 [2]: 29.6 µM; IC50 [3]: 23.5 µM; Papp at 12 h, 10 µM [4]: 0.93 ×10⁻⁶ cm/s
CCc1ccc(CCOc2ccc(CC3SC(=O)NC3=O)cc2)nc1 (stereo unspecified) |  | Activity [5]: 51.1%; Activity [6]: 70.2%; Activity [7]: 78.9%
CCOS(=O)(=O)/C=C/c1ccc(O[C@@H]2CN(Cc3ccc(Oc4ccc(C(C)C)cc4)cc3)C[C@H]2Oc2ccc(/C=C/S(=O)(=O)OCC)cc2)cc1 | 6.87 | 
CCOS(=O)(=O)/C=C/c1ccc(O[C@@H]2CN(C(=O)C(=O)Nc3ccc(Oc4ccccc4)cc3)C[C@H]2Oc2ccc(/C=C/S(=O)(=O)OCC)cc2)cc1 | 1.07 | 
CCOS(=O)(=O)/C=C/c1ccc(O[C@@H]2CN(C(=O)C(=O)Nc3ccc(Oc4ccc5ccccc5c4)cc3)C[C@H]2Oc2ccc(CCS(=O)(=O)OCC)cc2)cc1 | 0.36 | 
CCOS(=O)(=O)/C=C/c1ccc(O[C@H]2CNC[C@H]2Oc2ccc(/C=C/S(=O)(=O)OCC)cc2)cc1 | 27.4 | IC50 [2]: 47.8 µM; IC50 [3]: 55.2 µM; Papp at 12 h, 10 µM [4]: 0.87 ×10⁻⁶ cm/s
CCOS(=O)(=O)/C=C/c1ccc(O[C@@H]2CN(C(=O)C(=O)Nc3ccc(Oc4ccccc4)cc3)C[C@@H]2Oc2ccc(CCS(=O)(=O)OCC)cc2)cc1 | 2.79 | 
CCOS(=O)(=O)/C=C/c1ccc(O[C@@H]2CN(C(=O)c3ccccc3)C[C@H]2Oc2ccc(/C=C/S(=O)(=O)OCC)cc2)cc1 | 7.81 | 
CC(C)NCC(O)COc1cccc2ccccc12 (stereo unspecified) [PROPRANOLOL] |  | Papp at 12 h, 10 µM [4]: 8.71 ×10⁻⁶ cm/s
CCCCCCc1ccc(NC(=O)C(=O)N2C[C@@H](Oc3ccc(/C=C/S(=O)(=O)OCC)cc3)[C@H](Oc3ccc(CCS(=O)(=O)OCC)cc3)C2)cc1 | 0.61 | 
CCOS(=O)(=O)/C=C/c1ccc(O[C@@H]2CN(C(=O)c3ccc(Oc4ccc(C(C)C)cc4)cc3)C[C@H]2Oc2ccc(/C=C/S(=O)(=O)OCC)cc2)cc1 | 3.36 | 
CCOS(=O)(=O)/C=C/c1ccc(O[C@@H]2CN(C(=O)Nc3ccccc3)C[C@H]2Oc2ccc(/C=C/S(=O)(=O)OCC)cc2)cc1 | 3.51 | 
CCOS(=O)(=O)/C=C/c1ccc(O[C@@H]2CN(C(=O)C(=O)Nc3ccc(Oc4ccc5ccccc5c4)cc3)C[C@@H]2Oc2ccc(CCS(=O)(=O)OCC)cc2)cc1 | 1.26 | 
CCCCCCc1ccc(NC(=O)C(=O)N2C[C@H](Oc3ccc(CCS(=O)(=O)OCC)cc3)[C@H](Oc3ccc(/C=C/S(=O)(=O)OCC)cc3)C2)cc1 | 1.54 | 
CCOS(=O)(=O)/C=C/c1ccc(O[C@@H]2CN(Cc3ccc(Oc4ccccc4)cc3)C[C@H]2Oc2ccc(/C=C/S(=O)(=O)OCC)cc2)cc1 | 7.42 | 
CCOS(=O)(=O)/C=C/c1ccc(O[C@@H]2CN(C(=O)Nc3ccc(Oc4ccc(C(C)C)cc4)cc3)C[C@H]2Oc2ccc(/C=C/S(=O)(=O)OCC)cc2)cc1 | 1.37 | 

Now from value to compound, other results behind:

IC50 [1] [µM] | Structure (SMILES) | other results
0.46 | CCOS(=O)(=O)/C=C/c1ccc(O[C@@H]2CN(C(=O)C(=O)Nc3ccc(Oc4ccc(F)cc4)cc3)C[C@H]2Oc2ccc(CCS(=O)(=O)OCC)cc2)cc1 | 
0.43 | CCOS(=O)(=O)/C=C/c1ccc(O[C@@H]2CN(C(=O)C(=O)Nc3ccc(Oc4ccc(C(C)(C)C)cc4)cc3)C[C@H]2Oc2ccc(CCS(=O)(=O)OCC)cc2)cc1 | 
1.22 | CCOS(=O)(=O)/C=C/c1ccc(O[C@@H]2CN(C(=O)C(=O)Nc3ccc(Oc4ccc(F)cc4)cc3)C[C@@H]2Oc2ccc(CCS(=O)(=O)OCC)cc2)cc1 | 
0.38 | CCOS(=O)(=O)/C=C/c1ccc(O[C@@H]2CN(C(=O)C(=O)Nc3ccc(Oc4ccc(Cl)cc4)cc3)C[C@H]2Oc2ccc(CCS(=O)(=O)OCC)cc2)cc1 | 
1.17 | CCOS(=O)(=O)/C=C/c1ccc(O[C@@H]2CN(C(=O)C(=O)Nc3ccc(Oc4ccc(C(C)(C)C)cc4)cc3)C[C@@H]2Oc2ccc(CCS(=O)(=O)OCC)cc2)cc1 | 
1.51 | CCOS(=O)(=O)/C=C/c1ccc(O[C@@H]2CN(C(=O)C(=O)Nc3ccc(Oc4ccc(Br)cc4)cc3)C[C@@H]2Oc2ccc(CCS(=O)(=O)OCC)cc2)cc1 | 
1.45 | CCOS(=O)(=O)/C=C/c1ccc(O[C@@H]2CN(C(=O)C(=O)Nc3ccc(Oc4ccc(Cl)cc4)cc3)C[C@@H]2Oc2ccc(CCS(=O)(=O)OCC)cc2)cc1 | 
1.39 | CCOS(=O)(=O)/C=C/c1ccc(O[C@@H]2CN(C(=O)C(=O)Nc3ccc(Oc4ccc(C(C)C)cc4)cc3)C[C@@H]2Oc2ccc(CCS(=O)(=O)OCC)cc2)cc1 | 
0.44 | CCOS(=O)(=O)/C=C/c1ccc(O[C@@H]2CN(C(=O)C(=O)Nc3ccc(Oc4ccc(Br)cc4)cc3)C[C@H]2Oc2ccc(CCS(=O)(=O)OCC)cc2)cc1 | 
